For 13 compounds, TGI results are on record in PubChem BioAssay (NCI).

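Where inhibition never reached the appropriate level, the endpoint shown equals the highest concentration tested. Otherwise, values were interpolated linearly from a five-concentration, 48-hour dose response in 96-well plates. TGI marks complete inhibition of growth.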

What all share (test): NCI tumour cell line growth inhibition, 48 h
The test system of experiment [1] is NCI-H460 lung.
In experiment [2] the test system is RPMI-8226 leukemia.
In experiment [3] the test system is SF-295 CNS.
Experiment [4] deals with DU-145 prostate.
Experiment [5] deals with U251 CNS.
In experiment [6] the test system is NCI/ADR-RES ovarian.
The subject of experiment [7] is M14 melanoma.
The subject of experiment [8] is CCRF-CEM leukemia.
The test system of experiment [9] is SK-OV-3 ovarian.
In experiment [10] the test system is OVCAR-5 ovarian.

On to `COC(=O)[C@H](Cc1ccccc1)NC(=O)c1ccc(CNC(=O)/C=C/c2cccc(Oc3ccccc3)c2)cc1`, for which the TGI in experiment [1], in experiment [2], in experiment [3], in experiment [4], in experiment [5] and in experiment [6] was more than 100 µM each time. Besides, the TGI in experiment [7] is 30.8 µM; in experiment [8], more than 100 µM; in [9], more than 100 µM; in experiment [10], more than 100 µM.
For `O=C(O)c1ccc2c(c1)CC1(C2)Cc2cc3c(cc2C1=O)CCC3` (stereo not given), the TGI in experiment [1], in [2], in [3], in [4], in [5] and in [6] was more than 100 µM each time. Also, the TGI in experiment [7], in experiment [8], in experiment [9] and in [10] was more than 100 µM each time.
As for `CCOC(=O)C1(C(=O)OCC)CCCN1C(=O)[C@H](CNC(=O)OC(C)(C)C)NC(=O)OCc1ccccc1`, the TGI in experiment [1], in experiment [2], in [3], in experiment [4], in experiment [5] and in [6] was more than 100 µM throughout. In addition, the TGI in experiment [7], in experiment [8], in [9] and in [10] was more than 100 µM throughout.
`C=C1C(=O)OC2/C=C(/C)C3(O)OC(C)(CC(OC(=O)C(C)C)C12)CC3OC(C)=O` (stereo not given): the TGI was 25 µM in [1]; more than 100 µM in [2]; 56.5 µM in [3]; more than 69.6 µM in experiment [4]; 38.2 µM in [5]; more than 100 µM in experiment [6]. In addition, the TGI in experiment [7] was 68 µM; in experiment [8], more than 25.5 µM; in experiment [9] it was 26.1 µM; in experiment [10], 65.9 µM.
Take `Cc1ccc(S(=O)(=O)NC(=O)NNc2ccc(F)cc2)cc1`: the TGI in experiment [1] is more than 100 µM; in experiment [2], more than 58.2 µM; in experiment [3], more than 100 µM; in [4] it was more than 100 µM; in experiment [5], more than 100 µM; in [6], more than 100 µM. The TGI in experiment [7], in experiment [8], in experiment [9] and in experiment [10] was more than 100 µM each time.
`O/C(=C\c1nc2ccccc2nc1NC12CC3CC(CC(C3)C1)C2)c1ccc(Br)cc1`: the TGI in experiment [1], in experiment [2], in experiment [3], in [4], in experiment [5] and in [6] was more than 10 µM each time. Besides, the TGI in experiment [7], in [8], in experiment [9] and in experiment [10] was more than 10 µM throughout.
As to `S=C1CC(c2ccccc2)Sc2ccc(Cl)cc2N1` (stereo not given), the TGI in [1] is more than 100 µM; in experiment [2], more than 100 µM; in [3], 92.6 µM; in experiment [4], more than 100 µM; in experiment [5], more than 100 µM; in experiment [6], more than 100 µM. The TGI in experiment [7], in experiment [8], in experiment [9] and in experiment [10] was more than 100 µM throughout.
On to `COc1cc(CC(C)N)ccc1O` (stereo not given), for which the TGI in experiment [1], in experiment [2], in experiment [3], in experiment [4], in experiment [5] and in [6] was more than 100 µM throughout. The TGI in experiment [7] is more than 100 µM; in experiment [8] it was more than 31.6 µM; in experiment [9], more than 100 µM; in [10], more than 100 µM.
Regarding `O=C(O)c1c2c(cc3c1CC1(Cc4ccccc4C1=O)C3)CCC2` (stereo not given), the TGI in [1] is more than 100 µM; in [2], 52.3 µM; in experiment [3], more than 100 µM; in [4] it was more than 100 µM; in experiment [5] it was more than 100 µM; in experiment [6] it was more than 100 µM. Moreover, the TGI in experiment [7] was 70.7 µM; in experiment [8], 33.9 µM; in experiment [9], more than 100 µM; in experiment [10], more than 100 µM.
In the case of `CCOC(=O)C1CN(C2CC2)CCC1=O` (stereo not given), the TGI in experiment [1], in experiment [2], in experiment [3], in experiment [4], in [5] and in experiment [6] was more than 100 µM throughout. Also, the TGI in experiment [7], in [8], in [9] and in experiment [10] was more than 100 µM each time.
Regarding `COc1ccc(N=NC(=Nc2ccc(F)cc2)c2ccc(N(CCC#N)CCC#N)cc2)cc1`, the TGI in experiment [1] was 52 µM; in experiment [2] it was more than 100 µM; in experiment [3], more than 100 µM; in experiment [4] it was more than 100 µM; in [5] it was 84.4 µM; in experiment [6], more than 100 µM. Besides, the TGI in experiment [7], in experiment [8], in experiment [9] and in experiment [10] was more than 100 µM throughout.
On to `COC(=O)C1(Cc2ccc3c(c2)CCC3)Cc2cc3c(cc2C1)CCC3`, for which the TGI in experiment [1], in experiment [2], in experiment [3], in experiment [4], in experiment [5] and in [6] was more than 100 µM throughout. Moreover, the TGI in [7] is more than 100 µM; in experiment [8], 47.8 µM; in experiment [9] it was more than 100 µM; in experiment [10] it was more than 100 µM.
Turning to `c1ccc(-c2cnc(-c3ccc(-c4ncc(-c5ccccc5)o4)cc3)o2)cc1`, the TGI in experiment [1], in [2], in experiment [3], in [4], in experiment [5] and in experiment [6] was more than 100 µM each time. The TGI in experiment [7], in experiment [8], in experiment [9] and in experiment [10] was more than 100 µM each time.
